Data on one compound can be found in paper PMC10382351, “In vivo evaluation of a novel ^18F-labeled PET radioligand for translocator protein 18 kDa (TSPO) in monkey brain” (European Journal of Nuclear Medicine and Molecular Imaging, 2023).

Data set [1] is described as follows: Parent radioactivity and radiometabolite analysis in arterial plasma (HPLC). The class given is in vivo, rhesus monkey. Conditions: for Peak parent concentration in arterial plasma: n = 3. As for the experimental part:
(§1) Arterial blood sampling was performed in all scans to determine plasma parent concentration of the radioligand. Seventeen blood samples were drawn from an implanted port in the femoral artery of the monkeys during the 180-min PET scans at 15-s intervals for the first two minutes, followed by samples at 3, 5, 10, 30, 60, 90, 120, 150, and 180 min (volumes varied from 1.0 to 5.0 mL). Radioactivity in plasma was quantified and corrected for radiometabolites using high-performance liquid chromatography (HPLC). The separation was performed on an X-Terra C18 column (10 µm, 7.8 × 300 mm) with an isocratic mobile phase composed of methanol: water: triethylamine (77.5:22.5:0.1 by vol.) at a flow rate of 5 mL/min. The plasma free fraction (fP) was measured by ultrafiltration, as previously described. A standard fP was measured in a frozen aliquot of pooled plasma in parallel with the experimental blood sample, and as internal standard it was then used to normalize the measured fP of the blood samples.

Data set [2] in a line: Plasma free fraction (fP) by ultrafiltration. The class given is in vitro ADME, rhesus monkey. To be noted: for Plasma free fraction fP / fraction unbound: n = 3; for fraction unbound: male, rhesus monkey, plasma. As for the experimental part:
as §1

Data set [3] can be described thus: Ex vivo radioanalysis of mouse brain and plasma 120 min after injection. The format is in vivo, mice. The procedure: An ex vivo experiment was performed in another mouse 120 min after [^18F]SF51 injection. Anticoagulated blood was withdrawn from the myocardium, and the brain was extracted. The harvested brain was weighed and immediately underwent radioanalysis. The plasma was separated by centrifugation, and the radioactivity in both whole blood and plasma was measured as previously described.

Where [4] appears, read: representative radiochromatogram, baseline study, at 30 minutes.

Several values for one entry are separate records, joined by “and”; a condition that tells them apart may be missing. Equal entries are not always repeated.

The term fraction unbound denotes free concentration divided by total concentration. As to `CC[C@@H](C)N(C)C(=O)c1nc(-c2cccc([18F])c2)c2ccccc2n1` [[^18F]SF51], the “Average percentage of parent in plasma” value in data set [1] (at 120 min, roughly the same until 180 min, HPLC) is 25%. Further, the “Peak parent concentration in arterial plasma” value in data set [1] (baseline) was 4.1 ± 0.4 SUV. In addition, the “Peak parent concentration in arterial plasma” value in data set [1] (blocked with PK11195 5 mg/kg) was 7.5 ± 1.7 SUV. In addition, the “Number of radiometabolites in plasma (more hydrophilic than the parent)” value in data set [1] (monkey arterial plasma, HPLC) is given as “At least five”. Further, in data set [1] (setting [4]), the “Parent in arterial plasma” value stood at 36% and the “Total radiometabolites in arterial plasma” value is 64%. In data set [2] (baseline scans), the “Plasma free fraction fP” value amounted to 6 ± 1% and the fraction unbound was 0.064 ± 0.007. Further, in data set [2] (blocked scans (PK11195)), the “Plasma free fraction fP” value amounted to 19 ± 4% and the fraction unbound is 0.188 ± 0.036. In data set [2] (one monkey, after PBR28 pre-blockade (5 mg/kg)), this compound yielded a fPblock of 19.3%. The compound further gave a fPbase in data set [2] (one monkey, baseline scan of the PBR28 experiment) of 5.7%. Further, the “fP of the internal standard (frozen aliquot of pooled plasma)” value in data set [2] (six PET scans) is 2.4 to 3.8%. In data set [3], the “Parent radioligand as share of radioactivity in plasma” value was 9.1%; the “Parent radioligand as share of radioactivity in the brain” value was 96% and 96.4%.
